Common to all, as to type: cell-based
For one assay, the system named is S. aureus RN4220. Kind of assay: Minimal inhibitory concentration, S. aureus RN4220. The conditions noted are these: Staphylococcus aureus, RN4220, 16 h, 16 hour minimal inhibitory concentration at 37° C.; read-out: MIC (μM) S. aureus RN4220. The method in brief: (§1)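 MIC, in µM, taken as the lowest compound concentration preventing growth by OD600 after 16 h static incubation at 37 °C. Compound was twofold serially diluted in bacteria grown overnight in LB, or TSA for S. aureus, and diluted 1:100 twice.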

The subject of the next assay is S. aureus MW2. Nature of the assay: Minimal inhibitory concentration, S. aureus MW2. The conditions noted are these: Staphylococcus aureus, MRSA, 16 h, 16 hour minimal inhibitory concentration at 37° C.; read-out: MIC (μM) S. aureus MW2 (MRSA). The method in brief:
as §1

Another assay concerns E. cloacae 13047. Kind of assay: Minimal inhibitory concentration, E. cloacae 13047. The note with it: Enterobacter cloacae, 13047; 16 hour minimal inhibitory concentration at 37° C.; read-out: MIC (μM) E. cloacae 13047. The method in brief:
as §1

A further assay deals with A. baumannii 19606. Nature of the assay: Minimal inhibitory concentration, A. baumannii 19606. The note with it: Acinetobacter baumannii, 19606, 16 h, 16 hour minimal inhibitory concentration at 37° C.; read-out: MIC (μM) A. baumannii 19606. The essentials:
as §1

For a further assay, the system named is K. pneumoniae 700721. Nature of the assay: Minimal inhibitory concentration, K. pneumoniae 700721. The note with it: Klebsiella pneumoniae, 700721; 16 hour minimal inhibitory concentration at 37° C.; read-out: MIC (μM) K. pneumoniae 700721. The essentials: as §1
The test system of another assay is E. coli MC4100. Kind of assay: Minimal inhibitory concentration, E. coli MC4100. The conditions noted are these: Escherichia coli, MC4100, 16 h, 16 hour minimal inhibitory concentration at 37° C.; read-out: MIC (μM) E. coli MC4100 ara+. The essentials: as §1
For the next assay, the system named is E. coli 25922. Nature of the assay: Minimal inhibitory concentration, E. coli 25922. The conditions noted are these: Escherichia coli, 25922, 16 h, 16 hour minimal inhibitory concentration at 37° C.; read-out: MIC (μM) E. coli 25922. The essentials:
as §1

For orientation: MIC means the least concentration at which growth counts as inhibited.

Structures are written as SMILES. ≈ marks a conversion by molar mass, not a printed value. A value given as a limit tells only on which side of the number the result lay.

As for `CO[C@@H]1[C@@H](OC(N)=O)[C@@H](O)[C@H](Oc2ccc3c(O)c(NC(=O)c4ccnc(Oc5ccccc5)c4)c(=O)oc3c2C)OC1(C)C` [Compound 237], the MIC in the assay with S. aureus RN4220 was greater than 100 µM; with S. aureus MW2, greater than 100 µM; in the assay on E. cloacae 13047 it was greater than 100 µM; in the assay with A. baumannii 19606 it was greater than 50 µM; in the assay with K. pneumoniae 700721, greater than 100 µM; in the assay with E. coli MC4100, greater than 100 µM. The MIC in the assay with E. coli 25922 was greater than 200 µM.

As for `CO[C@@H]1[C@@H](OC(N)=O)[C@@H](O)[C@H](Oc2ccc3c(O)c(NC(=O)c4cccc(Oc5ccc(Cl)cc5)n4)c(=O)oc3c2C)OC1(C)C` [Compound 238], the MIC in the assay on S. aureus RN4220 is 10 µM (≈ 6.56 µg/mL); in the assay on S. aureus MW2, 10 µM (≈ 6.56 µg/mL); in the assay on E. cloacae 13047, greater than 100 µM; in the assay with A. baumannii 19606, greater than 50 µM; in the assay on K. pneumoniae 700721, greater than 100 µM; in the assay with E. coli MC4100, 152 µM (≈ 99.7 µg/mL). The MIC with E. coli 25922 is greater than 200 µM.

With `CO[C@@H]1[C@@H](OC(N)=O)[C@@H](O)[C@H](Oc2ccc3c(O)c(NC(=O)c4cc(Oc5ccccc5)ccn4)c(=O)oc3c2C)OC1(C)C` [Compound 239], the MIC with S. aureus RN4220 was 20 µM (≈ 12.4 µg/mL); in the assay on S. aureus MW2 it was 20 µM (≈ 12.4 µg/mL); with E. cloacae 13047 it was greater than 100 µM; in the assay on A. baumannii 19606, greater than 50 µM; with K. pneumoniae 700721 it was greater than 100 µM; in the assay on E. coli MC4100, greater than 200 µM. Further, the MIC with E. coli 25922 is greater than 200 µM.

Consider `COc1cccc(Oc2cccc(C(=O)Nc3c(O)c4ccc(O[C@@H]5OC(C)(C)[C@H](OC)[C@@H](OC(N)=O)[C@H]5O)c(C)c4oc3=O)c2)c1` [Compound 240], for which the MIC is 19.2 µM (≈ 12.5 µg/mL) in the assay with S. aureus RN4220; 19.2 µM (≈ 12.5 µg/mL) in the assay with S. aureus MW2; greater than 100 µM in the assay with E. cloacae 13047; greater than 50 µM in the assay with A. baumannii 19606; greater than 100 µM in the assay on K. pneumoniae 700721; 4.5 µM (≈ 2.93 µg/mL) in the assay on E. coli MC4100. The MIC in the assay with E. coli 25922 came to 38 µM (≈ 24.7 µg/mL).

Consider `CO[C@@H]1[C@@H](OC(N)=O)[C@@H](O)[C@H](Oc2ccc3c(O)c(NC(=O)c4cccc(Oc5cccc(C(F)(F)F)c5)c4)c(=O)oc3c2C)OC1(C)C` [Compound 241], for which the MIC is 9.08 µM (≈ 6.25 µg/mL) with S. aureus RN4220; 9.08 µM (≈ 6.25 µg/mL) in the assay on S. aureus MW2; greater than 100 µM with E. cloacae 13047; greater than 50 µM in the assay on A. baumannii 19606; greater than 100 µM with K. pneumoniae 700721; 155 µM (≈ 107 µg/mL) with E. coli MC4100. Besides, in the assay on E. coli 25922, the MIC amounted to 145 µM (≈ 99.8 µg/mL).

For `CO[C@@H]1[C@@H](OC(N)=O)[C@@H](O)[C@H](Oc2ccc3c(O)c(NC(=O)c4cccc(Oc5ccc(C#N)cc5)c4)c(=O)oc3c2C)OC1(C)C` [Compound 242], the MIC in the assay with S. aureus RN4220 was greater than 100 µM; in the assay on S. aureus MW2, 77 µM (≈ 49.7 µg/mL); in the assay on E. cloacae 13047, greater than 100 µM; with A. baumannii 19606, greater than 50 µM; in the assay with K. pneumoniae 700721, greater than 100 µM; in the assay with E. coli MC4100, 153 µM (≈ 98.8 µg/mL). Besides, the MIC in the assay on E. coli 25922 was determined as 154 µM (≈ 99.4 µg/mL).

As for `CO[C@@H]1[C@@H](OC(N)=O)[C@@H](O)[C@H](Oc2ccc3c(O)c(NC(=O)c4cccc(Oc5ccc(Cl)cc5)c4)c(=O)oc3c2C)OC1(C)C` [Compound 243], the minimum inhibitory concentration (MIC) with S. aureus RN4220 is 10 µM (≈ 6.55 µg/mL); in the assay with S. aureus MW2 it was 10 µM (≈ 6.55 µg/mL); in the assay on E. cloacae 13047, greater than 100 µM; with A. baumannii 19606 it was greater than 50 µM; in the assay with K. pneumoniae 700721, greater than 100 µM; in the assay with E. coli MC4100, 4.8 µM (≈ 3.14 µg/mL). Also, the MIC with E. coli 25922 was found to be 38 µM (≈ 24.9 µg/mL).

Turning to `CO[C@@H]1[C@@H](OC(N)=O)[C@@H](O)[C@H](Oc2ccc3c(O)c(NC(=O)c4cc(Oc5ccccc5)c(O)cc4O)c(=O)oc3c2C)OC1(C)C` [Compound 244], the MIC is 19 µM (≈ 12.4 µg/mL) with S. aureus RN4220; 19 µM (≈ 12.4 µg/mL) in the assay with S. aureus MW2; greater than 100 µM in the assay on E. cloacae 13047; greater than 50 µM with A. baumannii 19606; 38 µM (≈ 24.8 µg/mL) with K. pneumoniae 700721; 4.8 µM (≈ 3.13 µg/mL) in the assay on E. coli MC4100. In addition, the MIC with E. coli 25922 was 38 µM (≈ 24.8 µg/mL).

With `CO[C@@H]1[C@@H](OC(N)=O)[C@@H](O)[C@H](Oc2ccc3c(O)c(NC(=O)c4cccc(Oc5cccc(Cl)c5)c4)c(=O)oc3c2C)OC1(C)C` [Compound 245], the MIC in the assay on S. aureus RN4220 was 10 µM (≈ 6.55 µg/mL); in the assay with S. aureus MW2 it was 19 µM (≈ 12.4 µg/mL); in the assay with E. cloacae 13047 it was greater than 100 µM; with A. baumannii 19606, greater than 50 µM; with K. pneumoniae 700721, greater than 100 µM; with E. coli MC4100, 38 µM (≈ 24.9 µg/mL). The MIC with E. coli 25922 amounted to 76 µM (≈ 49.8 µg/mL).

With `CO[C@@H]1[C@@H](OC(N)=O)[C@@H](O)[C@H](Oc2ccc3c(O)c(NC(=O)c4cccc(Oc5ccccc5Cl)c4)c(=O)oc3c2C)OC1(C)C` [Compound 246], the MIC in the assay on S. aureus RN4220 is 10 µM (≈ 6.55 µg/mL); in the assay on S. aureus MW2 it was 5 µM (≈ 3.28 µg/mL); in the assay on E. cloacae 13047, greater than 100 µM; in the assay with A. baumannii 19606 it was greater than 50 µM; with K. pneumoniae 700721, greater than 100 µM; in the assay on E. coli MC4100 it was 79 µM (≈ 51.7 µg/mL). Also, the MIC in the assay on E. coli 25922 is 76 µM (≈ 49.8 µg/mL).

Turning to `CO[C@@H]1[C@@H](OC(N)=O)[C@@H](O)[C@H](Oc2ccc3c(O)c(NC(=O)c4cccc(Oc5cccc(C)c5)c4)c(=O)oc3c2C)OC1(C)C` [Compound 247], the MIC with S. aureus RN4220 is 10 µM (≈ 6.35 µg/mL); in the assay with S. aureus MW2, 5 µM (≈ 3.17 µg/mL); in the assay on E. cloacae 13047 it was greater than 100 µM; in the assay on A. baumannii 19606 it was greater than 50 µM; in the assay on K. pneumoniae 700721 it was greater than 100 µM; in the assay with E. coli MC4100 it was 18 µM (≈ 11.4 µg/mL). Also, the MIC in the assay on E. coli 25922 turned out to be 39 µM (≈ 24.8 µg/mL).

With `CO[C@@H]1[C@@H](OC(N)=O)[C@@H](O)[C@H](Oc2ccc3c(O)c(NC(=O)c4cccc(Oc5ccc(C(C)(C)C)cc5)c4)c(=O)oc3c2C)OC1(C)C` [Compound 248], the MIC in the assay on S. aureus RN4220 is 2.3 µM (≈ 1.56 µg/mL); with S. aureus MW2, 2.3 µM (≈ 1.56 µg/mL); with E. cloacae 13047, greater than 100 µM; in the assay on A. baumannii 19606, greater than 50 µM; in the assay with K. pneumoniae 700721 it was greater than 100 µM; with E. coli MC4100, greater than 200 µM. For the same compound, the MIC with E. coli 25922 worked out at 148 µM (≈ 100 µg/mL).

In the case of `CO[C@@H]1[C@@H](OC(N)=O)[C@@H](O)[C@H](Oc2ccc3c(O)c(NC(=O)c4cccc(Oc5ccc(F)cc5)c4)c(=O)oc3c2C)OC1(C)C` [Compound 249], the minimal inhibitory concentration (MIC) is 20 µM (≈ 12.8 µg/mL) in the assay on S. aureus RN4220; 20 µM (≈ 12.8 µg/mL) with S. aureus MW2; greater than 100 µM in the assay with E. cloacae 13047; greater than 50 µM in the assay with A. baumannii 19606; 20 µM (≈ 12.8 µg/mL) with K. pneumoniae 700721; 5 µM (≈ 3.19 µg/mL) in the assay on E. coli MC4100. Moreover, the MIC in the assay on E. coli 25922 is less than 1.56 µM.

With `CO[C@@H]1[C@@H](OC(N)=O)[C@@H](O)[C@H](Oc2ccc3c(O)c(NC(=O)c4ccc5c(c4)oc4ccccc45)c(=O)oc3c2C)OC1(C)C` [Compound 250], the MIC with S. aureus RN4220 is 10 µM (≈ 6.19 µg/mL); in the assay with S. aureus MW2, 10 µM (≈ 6.19 µg/mL); in the assay with E. cloacae 13047, greater than 100 µM; in the assay on A. baumannii 19606, greater than 50 µM; with K. pneumoniae 700721, greater than 100 µM; in the assay on E. coli MC4100, greater than 100 µM. The MIC in the assay with E. coli 25922 was greater than 200 µM.

For the compound `CO[C@@H]1[C@@H](OC(N)=O)[C@@H](O)[C@H](Oc2ccc3c(O)c(NC(=O)c4cccc(Oc5ccc(C(F)(F)F)cc5)c4)c(=O)oc3c2C)OC1(C)C` [Compound 251], the MIC in the assay with S. aureus RN4220 is 9 µM (≈ 6.2 µg/mL); in the assay with S. aureus MW2, 9 µM (≈ 6.2 µg/mL); in the assay on E. cloacae 13047, greater than 100 µM; with A. baumannii 19606, greater than 50 µM; in the assay with K. pneumoniae 700721, greater than 100 µM; in the assay with E. coli MC4100, 4.5 µM (≈ 3.1 µg/mL). For the same compound, the MIC in the assay on E. coli 25922 was 9 µM (≈ 6.2 µg/mL).

As for `CO[C@@H]1[C@@H](OC(N)=O)[C@@H](O)[C@H](Oc2ccc3c(O)c(NC(=O)c4ccc(I)c(Oc5ccccc5)c4)c(=O)oc3c2C)OC1(C)C` [Compound 252], the MIC was 2.3 µM (≈ 1.72 µg/mL) in the assay with S. aureus RN4220; 2 µM (≈ 1.49 µg/mL) in the assay with S. aureus MW2; greater than 100 µM in the assay on E. cloacae 13047; greater than 50 µM in the assay on A. baumannii 19606; 38 µM (≈ 28.4 µg/mL) with K. pneumoniae 700721; 17 µM (≈ 12.7 µg/mL) in the assay on E. coli MC4100. Moreover, in the assay with E. coli 25922, the MIC worked out at 33 µM (≈ 24.6 µg/mL).

The values above are taken from patent US11713335B2, “Aminocoumarin compounds and methods of their use” (President and Fellows of Harvard College, priority 2018, dated 2023).
